What all share (format): in vivo, SD rats
The subject of assay [1] is gouty arthritis rats (sodium urate, right ankle and knee joint cavities). The assay can be described thus: Pharmacodynamics experiment B on gouty arthritis rats: gait score. The note with it: for Gait Score: dose 0.6 mg/kg gavage, mean; for Gait versus model group, in words: compounds 0.6 mg/kg, colchicine 0.6 and 1.2 mg/kg. Here is the method:
(§1) Compounds 12, 16, 19, 30, 34, 36, 38, 40, 44, 48, 49, 52, 58, 69, 83, 98, 102, 119, 121, and 122 were prepared by grinding with 0.5% CMC-Na prior to administration and formulated into suspensions of appropriate concentration (0.12 mg/mL) for gavage, with an administered dose of 0.5 mL/100 g.
(§2) 240 SD rats, males, were acclimatized for one week and weighed 180-220 g. […] The dose of each compound group was 0.6 mg/kg. The compounds in each group were prepared into the corresponding concentration suspension, and the volume of administration was 10 mL/kg.
(§3) 250 mg of sodium urate were added to 9 mL of saline, and 1 mL of Tween-80 solution was added, the resulting mixture was heated and stirred to formulate 10 mL of sodium urate solution. The rats were grasped and fixed, and 0.2 mL of sodium urate solution was injected into the right ankle and knee joint cavities respectively to establish gouty arthritis rat model.
(§4) Before modeling, positive drug and tested compounds were pre-administered for 7 days, once a day, and modeling was performed on day 8, and drug administration by gavage continued for 3 days after modeling.
Gait was scored according to the modified gait grading criteria introduced by Coderre et al. The gait of each rat was observed before and 2 h, 4 h, 8 h, 10 h, 24 h and 48 h after modeling and graded scoring was performed. The gait grading criteria were as follows: 0 point, normal walking; 1 point, slight lameness, the lower limbs were slightly bent; 2 points: moderate lameness, the lower limbs just touched the ground; 3 points, severe lameness, the lower limbs left the ground, and walked on three feet. The mean score of each group was calculated and compared with that of the model group.
(§5) Each experimental data was expressed as the mean, and intergroup comparisons were examined for significance using the ANOVA-Dunnett T-test, with P<0.05 as the significance indicator.

Assay [2] shares this test system. The assay can be described thus: Pharmacodynamics experiment B on gouty arthritis rats: ankle swelling rate. Conditions: Rattus norvegicus, po, read-out: Swelling rate (ankle). As to the method: as §1, §2, §3, §4
Before modeling and 2 h, 4 h, 8 h, 10 h, 24 h and 48 h after modeling, the circumference of the right ankle joint was measured using a soft ruler or the volume change at the ankle was measured (volumetric method), and the swelling degree and swelling rate of ankle joint were calculated:
Swelling degree (mm)=measured circumference (mm)−baseline circumference (mm)
Swelling rate (%)=swelling degree (mm)/baseline circumference (mm)×100%
as §5

The next assay concerns TNF-α. The assay can be described thus: Inflammatory factor experiment B: TNF-α in knee synovial tissue (ELISA). The note with it: Rattus norvegicus, po, 48 h, read-out: TNF-α percentage decrease %. (In general: An ELISA detects its analyte on a solid surface through an enzyme-linked reagent.)
The test system of another assay is IL-1β. The assay can be described thus: Inflammatory factor experiment B: IL-1β in knee synovial tissue (ELISA). Conditions: Rattus norvegicus, po, 48 h, read-out: IL-1β percentage decrease %.
The subject of the next assay is IL-6. The assay can be described thus: Inflammatory factor experiment B: IL-6 in knee synovial tissue (ELISA). Conditions: Rattus norvegicus, po, 48 h, read-out: IL-6 percentage decrease %.

SMILES strings stand for the structures. Read-outs that look alike come from different tables or passages of the source. Marks after values point to notes of the source that are not given here.

With `COc1cc2c(c(OC)c1OC)-c1ccc(C#N)c(=O)cc1[C@@H](NC(C)=O)CC2` [Compound 38, (S)—N-(10-cyano-1,2,3-trimethoxy-9-oxo-5,6,7,9-tetrahydrobenzo[a]heptalen-7-yl)acetamide], the “Gait Score” value in assay [1] (2 h) is 0; in assay [1] (4 h) it was 0; in assay [1] (8 h), 0*; in assay [1] (10 h) it was 0*; in assay [1] (24 h), 0; in assay [1] (48 h) it was 0. Moreover, the “Gait versus model group, in words” value in assay [1] is “significant improvement in gait occurred at different time points”. The change in vivo at 0.6 mg/kg came out at 6.34% in assay [2] (2 h); 12.6% in assay [2] (4 h); 10.4% in assay [2] (8 h); 17.9% in assay [2] (10 h); 16.9% in assay [2] (24 h); 6.71% in assay [2] (48 h). Also, the inhibition in vivo at 0.6 mg/kg was determined as 86.6% in the assay on TNF-α, 102% with IL-1β and 69% in the assay on IL-6.
As to `CNC(=O)N[C@H]1CCc2cc(OC)c(OC)c(OC)c2-c2cc(C)c(OC)c(=O)cc21` [Compound 44, (S)-1-methyl-(1,2,3,10-tetramethoxy-11-methyl-9-oxo-5,6,7,9-tetrahydrobenzo[a]heptalen-7-yl)urea], the “Gait Score” value is recorded as 0 in assay [1] (2 h); 0 in assay [1] (4 h); 0* in assay [1] (8 h); 0* in assay [1] (10 h); 0 in assay [1] (24 h); 0 in assay [1] (48 h). Further, the change in vivo at 0.6 mg/kg in assay [2] (2 h) was -9.72%; in assay [2] (4 h), -8.92%; in assay [2] (8 h) it was -6.13%; in assay [2] (10 h), -1.47%; in assay [2] (24 h), 3.17%; in assay [2] (48 h) it was -6.2%. For the same compound, the inhibition in vivo at 0.6 mg/kg in the assay on TNF-α is 72.6%; in the assay with IL-1β, 104%; with IL-6, 19.7%.
In the case of `CNC(=O)c1cc2c(ccc1=O)-c1c(cc(OC)c(OC)c1OC)CC[C@@H]2NC(C)=O` [Compound 49, (S)-7-acetamido-1,2,3-trimethoxy-N-methyl-10-oxo-5,6,7,10-tetrahydrobenzo[a]heptalen-9-carboxamide], the “Gait Score” value in assay [1] (2 h) is 0; in assay [1] (4 h) it was 0; in assay [1] (8 h), 0*; in assay [1] (10 h), 0*; in assay [1] (24 h), 0.2; in assay [1] (48 h), 0. The “Gait versus model group, in words” value in assay [1] is given as “significant improvement in gait occurred at different time points”. In addition, the change in vivo at 0.6 mg/kg was -1.02% in assay [2] (2 h); 7.38% in assay [2] (4 h); 8.12% in assay [2] (8 h); 16.5% in assay [2] (10 h); 12.9% in assay [2] (24 h); 1.43% in assay [2] (48 h). The inhibition in vivo at 0.6 mg/kg was 79.2% in the assay on TNF-α, 69.1% in the assay with IL-1β and 78.6% in the assay on IL-6.
Consider `COc1cc2c(c(OC)c1OC)-c1ccc(S(N)(=O)=O)c(=O)cc1[C@@H](NC(C)=O)CC2` [Compound 69, (S)—N-[1,2,3-trimethoxy-9-oxo-10-aminosulfonyl-5,6,7,9-tetrahydrobenzo[a]heptalen-7-yl]acetamide], for which the “Gait Score” value in assay [1] (2 h) is reported as 0; in assay [1] (4 h), 0; in assay [1] (8 h) it was 0*; in assay [1] (10 h), 0*; in assay [1] (24 h), 0; in assay [1] (48 h), 0. Also, the “Gait versus model group, in words” value in assay [1] is listed as “significant improvement in gait occurred at different time points”. Also, the change in vivo at 0.6 mg/kg was 5.65% in assay [2] (2 h); 7.01% in assay [2] (4 h); 14.7% in assay [2] (8 h); 26.8% in assay [2] (10 h); 19% in assay [2] (24 h); 5.21% in assay [2] (48 h). The inhibition in vivo at 0.6 mg/kg in the assay on TNF-α came out at 76.1%; in the assay on IL-1β, 110%; with IL-6, 83%.
In the case of `COc1cc2c(c(OC)c1OC)-c1ccc(-n3ccc(C)n3)c(=O)cc1[C@@H](NC(C)=O)CC2` [Compound 98, (S)—N-{1,2,3-trimethoxy-10-(3-methyl-1H-pyrazol-1-yl)-9-oxo-5,6,7,9-tetrahydrobenzo[a]heptalen-7-yl}acetamide], the “Gait Score” value in assay [1] (2 h) is on record as 0; in assay [1] (4 h), 0; in assay [1] (8 h) it was 0*; in assay [1] (10 h), 0*; in assay [1] (24 h), 0.1; in assay [1] (48 h), 0. Moreover, in assay [1], the “Gait versus model group, in words” value was “significant improvement in gait occurred at different time points”. Further, the change in vivo at 0.6 mg/kg worked out at 7.9% in assay [2] (2 h); 13.4% in assay [2] (4 h); 16.4% in assay [2] (8 h); 17.7% in assay [2] (10 h); 19.7% in assay [2] (24 h); 8.9% in assay [2] (48 h). The inhibition in vivo at 0.6 mg/kg worked out at 98.9% with TNF-α, 65% in the assay on IL-1β and 167% in the assay with IL-6.
On to `COc1cc2c(c(OC)c1OC)-c1ccc(-c3cnn(C)c3)c(=O)cc1[C@@H](NC(C)=O)CC2` [Compound 119, (S)—N-{1,2,3-trimethoxy-10-(1-methyl-1H-pyrazol-4-yl)-9-oxo-5,6,7,9-tetrahydrobenzo[a]heptalen-7-yl}acetamide], for which the “Gait Score” value in assay [1] (2 h) was 0; in assay [1] (4 h) it was 0; in assay [1] (8 h) it was 0.1*; in assay [1] (10 h) it was 0.4; in assay [1] (24 h) it was 0; in assay [1] (48 h), 0. Further, the change in vivo at 0.6 mg/kg is 10.4% in assay [2] (2 h); 14.1% in assay [2] (4 h); 19.4% in assay [2] (8 h); 22.2% in assay [2] (10 h); 15.8% in assay [2] (24 h); 5.3% in assay [2] (48 h). In addition, the values for the inhibition in vivo at 0.6 mg/kg in the assay with TNF-α, in the assay on IL-1β and with IL-6 were 105%, 85.5% and 169%, respectively.
For the compound `CNC(=O)c1ccc2c(cc1=O)[C@@H](NC(C)=O)CCc1cc(OC)c(O)c(OC)c1-2` [Compound 121, (S)-7-acetamido-2-hydroxy-1,3-dimethoxy-N-methyl-9-oxo-5,6,7,9-tetrahydrobenzo[a]heptalen-10-carboxamide], the “Gait Score” value is given as 0 in assay [1] (2 h); 0 in assay [1] (4 h); 0.2 in assay [1] (8 h); 0.2 in assay [1] (10 h); 0 in assay [1] (24 h); 0 in assay [1] (48 h). The change in vivo at 0.6 mg/kg amounted to 11.8% in assay [2] (2 h); 15.6% in assay [2] (4 h); 20.9% in assay [2] (8 h); 22.5% in assay [2] (10 h); 16.3% in assay [2] (24 h); 9.4% in assay [2] (48 h). Moreover, the inhibition in vivo at 0.6 mg/kg with TNF-α was 119%; in the assay on IL-1β, 67.7%; in the assay on IL-6, 231%.

These data come from patent US20250129012A1, “ANTI-INFLAMMATORY AND ANALGESIC COMPOUNDS AND USE THEREOF” (JIANGSU ATOM BIOSCIENCE AND PHARMACEUTICAL CO., LTD., priority 2021, published 2025).
